According to article PMC2841647 (PLoS ONE, 2010):
Values joined by “and” are separate entries in the source; they are usually repeats but may differ in a detail not shown here. Equal entries are not always repeated. Where two headings read alike, the source gives them in different places. Where a SMILES comes first, the peptide text is derived from it. Bridges are numbered along the chain shown (N, C = ends).

Assays:
human TrkB receptor = target: T1, human TrkB receptor (Homo sapiens, UniProt Q16620); experiment: KIRA-ELISA (TrkB tyrosine phosphorylation) in TetOn-rhTrkB CHO cells; assay type: cell-based; settings: for IC50 / ratio signal/background / EC50: TetOn-rhTrkB cells; for EC50: read-out: EC50, TrkB activation
T1 construct: expressed in transfected cells
T1 sequence (Q16620 32-822): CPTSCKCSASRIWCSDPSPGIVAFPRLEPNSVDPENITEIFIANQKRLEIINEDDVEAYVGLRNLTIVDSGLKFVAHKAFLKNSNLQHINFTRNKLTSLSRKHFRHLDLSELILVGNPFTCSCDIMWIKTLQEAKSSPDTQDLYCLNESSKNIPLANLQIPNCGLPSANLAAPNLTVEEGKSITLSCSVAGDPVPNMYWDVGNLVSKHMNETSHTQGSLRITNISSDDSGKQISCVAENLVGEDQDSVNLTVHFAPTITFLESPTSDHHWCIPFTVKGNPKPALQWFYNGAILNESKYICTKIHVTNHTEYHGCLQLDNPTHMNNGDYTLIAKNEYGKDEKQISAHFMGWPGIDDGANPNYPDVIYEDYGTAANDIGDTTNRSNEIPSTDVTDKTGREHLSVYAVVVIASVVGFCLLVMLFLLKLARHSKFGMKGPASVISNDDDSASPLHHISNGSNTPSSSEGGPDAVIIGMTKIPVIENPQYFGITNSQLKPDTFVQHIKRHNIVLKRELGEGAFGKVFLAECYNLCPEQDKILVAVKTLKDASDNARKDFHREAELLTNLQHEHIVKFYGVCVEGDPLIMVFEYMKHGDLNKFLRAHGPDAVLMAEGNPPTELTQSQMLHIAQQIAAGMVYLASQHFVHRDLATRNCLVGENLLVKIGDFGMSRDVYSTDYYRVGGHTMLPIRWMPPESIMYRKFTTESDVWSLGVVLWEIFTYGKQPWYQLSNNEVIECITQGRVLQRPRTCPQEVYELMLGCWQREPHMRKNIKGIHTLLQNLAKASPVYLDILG
Source text: (§1) The human recombinant TrkB receptor was fluorescently tagged at its C-terminus with the Enhanced cyan fluorescent protein (rhTrkB-ECFP) by cloning the full human TrkB sequence (kindly provided by G. M. Brodeur) into the pECFP-N1 expression vector (Clontech). For inducible expression, rhTrkB-ECFP was subcloned into the tetracycline-responsive (TetOn) vector pTRE2 (Clontech). Chinese Hamster Ovary cells stably expressing rhTrkB-ECFP (TetOn-rhTrkB cells), were produced by transfection of the pTRE2-rhTrkB-ECFP plasmid into CHO-K1 TetOn cells (Clontech) followed by clone selection in 0.25 mg/ml hygromycin B (Invitrogen) and 0.1 mg/ml geneticin (G418; Invitrogen). Resistant cells were selected based on both fluorescence intensity and KIRA-ELISA profile after an overnight incubation in presence of 1000 ng/ml doxycycline (Clontech). Cortical neurons were prepared and cultured from E16 mouse embryos as described previously. The nnr5 PC12-TrkA, nnr5 PC12-TrkB and nnr5 PC12-TrkC cells (kindly provided by M. V. Chao) are NGF non-responding mutant PC12 cells stably transfected with TrkA, TrkB and TrkC cDNA, respectively.
(§2) TrkB activity was quantified using the previously described KIRA-ELISA assay with slight modifications. Cortical neurons were seeded on polyornithin-coated flat-bottom 96-well culture plates (12×10^4 cells per well) and cultured eight days at 37°C in 5% CO2. TetOn-rhTrkB cells were seeded on flat-bottom 96-well culture plates (4×10^4 cells per well) and incubated overnight with 1000 ng/ml doxycycline (Figs. S1,S2) except when indicated. Fluorescence levels in TetOn-rhTrkB cells were verified before each assay. […] Assay was stopped by removing the medium on ice and membranes were solubilized using KIRA-ELISA solubilization buffer (NaCl 150 mM, Hepes 50 mM, Triton X-100 0.5%, thimerosal 0.01%, sodium orthovanadate 2 mM, supplemented with a cocktail of protease inhibitors) for 1 h at room temperature. Solubilized membranes were transferred for 2 h at room temperature onto ELISA microtiter plate (Nunc Maxisorp) pre-coated overnight at 4°C with appropriate antibodies [polyclonal anti-GFP (1∶5000, Clontech) for TetOn-rhTrkB, polyclonal anti-TrkB (1 µg/ml, Upstate) for cultured neurons and brain slices, for phosphorylation assays; monoclonal anti-GFP (1∶3000, Chemicon) for TetOn-rhTrkB, monoclonal anti-TrkB (1∶1000, BD Biosciences) for cultured neurons and brain slices, for total TrkB quantification]. […] Absorbance was read at 450 nm after addition of 3,3′,5′,5-tetramethyl-benzidine substrate (Sigma) and acidification with 1N hydrochloric acid.
(§3) Concentration-response and competition curves were obtained using an iterative least-squares method derived from that of Parker & Waud (1971). […] Concentration-response curves and Eadie-Hofstee plots were analyzed using two-way ANOVA. Significance over time in locomotor activity studies was given using two-way ANOVA followed by Bonferroni's post-hoc test. […] One-way ANOVA followed by post-hoc Dunnett's test was used to evaluate statistical significance compare to saline group in EPM and FST procedures. n represents the number of independent experiments.

[1] = target: T2, native TrkB receptors in cortical neurons (Mus musculus, UniProt P15209); experiment: KIRA-ELISA (TrkB tyrosine phosphorylation) in primary cortical neurons; assay type: cell-based; settings: for EC50: read-out: EC50, TrkB activation
T2 construct: cortical neurons naturally express TrkB receptors; endogenous in cells; host or cells: primary cortical neurons from E16 mouse embryos
T2 sequence (P15209 32-821): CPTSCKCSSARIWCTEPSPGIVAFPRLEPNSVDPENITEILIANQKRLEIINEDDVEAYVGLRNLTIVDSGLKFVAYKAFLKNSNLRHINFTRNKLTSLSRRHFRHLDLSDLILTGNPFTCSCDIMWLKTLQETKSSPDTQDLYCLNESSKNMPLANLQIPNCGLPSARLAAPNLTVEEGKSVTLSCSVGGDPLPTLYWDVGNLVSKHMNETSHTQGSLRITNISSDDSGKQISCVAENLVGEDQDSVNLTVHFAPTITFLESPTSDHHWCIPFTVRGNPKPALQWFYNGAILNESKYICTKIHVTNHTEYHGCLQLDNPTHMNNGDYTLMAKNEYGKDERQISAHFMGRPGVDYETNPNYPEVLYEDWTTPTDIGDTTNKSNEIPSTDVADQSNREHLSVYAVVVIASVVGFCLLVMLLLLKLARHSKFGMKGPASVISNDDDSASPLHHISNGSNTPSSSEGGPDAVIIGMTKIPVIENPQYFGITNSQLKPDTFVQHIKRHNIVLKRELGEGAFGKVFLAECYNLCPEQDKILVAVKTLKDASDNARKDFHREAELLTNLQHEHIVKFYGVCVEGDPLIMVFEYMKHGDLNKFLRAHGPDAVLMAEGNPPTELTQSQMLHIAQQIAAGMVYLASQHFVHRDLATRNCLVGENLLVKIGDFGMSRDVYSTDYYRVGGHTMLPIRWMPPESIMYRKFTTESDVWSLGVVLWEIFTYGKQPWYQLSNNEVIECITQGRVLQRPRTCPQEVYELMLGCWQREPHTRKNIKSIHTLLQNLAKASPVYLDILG
Source text: as §1, §2, §3

TrkB in brain slices = target: T3, TrkB in brain slices (Mus musculus, UniProt P15209); experiment: KIRA-ELISA in brain slices incubated with peptide; assay type: cell-based; settings: peptide added to brain slices
T3 construct: KIRA-ELISA analysis of brain TrkB receptors from mice; from tissue; host or cells: adult Swiss mouse brain, 300-µm coronal slices
T3 sequence (P15209 32-821): as above
Protocol: TrkB activity was quantified using the previously described KIRA-ELISA assay with slight modifications. Cortical neurons were seeded on polyornithin-coated flat-bottom 96-well culture plates (12×10^4 cells per well) and cultured eight days at 37°C in 5% CO2. TetOn-rhTrkB cells were seeded on flat-bottom 96-well culture plates (4×10^4 cells per well) and incubated overnight with 1000 ng/ml doxycycline (Figs. S1,S2) except when indicated. Fluorescence levels in TetOn-rhTrkB cells were verified before each assay. […] Solubilized membranes were transferred for 2 h at room temperature onto ELISA microtiter plate (Nunc Maxisorp) pre-coated overnight at 4°C with appropriate antibodies [polyclonal anti-GFP (1∶5000, Clontech) for TetOn-rhTrkB, polyclonal anti-TrkB (1 µg/ml, Upstate) for cultured neurons and brain slices, for phosphorylation assays; monoclonal anti-GFP (1∶3000, Chemicon) for TetOn-rhTrkB, monoclonal anti-TrkB (1∶1000, BD Biosciences) for cultured neurons and brain slices, for total TrkB quantification]. […] Absorbance was read at 450 nm after addition of 3,3′,5′,5-tetramethyl-benzidine substrate (Sigma) and acidification with 1N hydrochloric acid.

mice [2] = experiment: Elevated plus-maze (EPM); assay type: in vivo, mouse; settings: vs saline
Protocol: (§4) Mice were treated as described above before being subjected to behavioral studies. Predictive estimation for anxiolytic properties of tat-cyclotraxin-B was assessed using open field and elevated plus-maze (EPM). Antidepressant-like action of tat-cyclotraxin-B was assessed with the forced-swim test (FST). Effects of acute treatment with tat-cyclotraxin-B on spontaneous locomotion, exploration and reactivity to a novel open field was assessed in plexiglas activity chambers (Med Associates; 45×45×31 cm). Mice were placed into the center of the open field, and activity was recorded for 30 min. Testing took place under bright ambient light conditions to increase the anxiety component of the center areas of the field (defined as the central 15×15 cm portion). Mice subjected to EPM received a double 90-interval i.v. injection of tat-cyclotraxin-B or saline buffer before being placed on the platform of the EPM and assessed for 5 min (26×5×36 cm). The diazepam control group consisted of saline buffer double-treated mice that further received a 30-min i.p. injection of diazepam (1 mg/kg). Mice were assessed for number of entries and amount of time spent in open versus closed arms. The FST procedure was applied to treated mice as described by Porsolt et al. (see ref. [60]). Mice were dropped individually into glass cylinder (height, 25 cm; diameter, 10 cm) containing 10 cm water height, maintained at 23–25°C. Animals were tested for a total of 6 min. The total time of swimming, the number of climbing attempts and the time of immobility was recorded during the last 4 min of the session, after 2 min of habituation. The paroxetine control group consisted of saline buffer double-treated mice that further received a 30-min i.p. injection of paroxetine (2 mg/kg). Behaviors were recorded on videotape and scored blind.

nnr5 PC12 cells = experiment: Morphological analysis of toxicity / cell death; assay type: cell-based; settings: 72 hours after exposure to 10 µM
nnr5 PC12-TrkB cells = settings: 48 h
mice [3] = experiment: Forced swim test (FST); assay type: in vivo, mouse; settings: acute treatment, vs saline
Protocol: as §4

[4] = TrkB + p75NTR co-expressing cortical neurons

NGF: neurotrophin
KIRA-ELISA signal (human TrkB receptor; recombinant cells): did not produce any signal
KIRA-ELISA signal ([1]; neuronal cells): did not produce any signal

YGRKKRRQRRR [tat-empty, reference compound]
TrkB inhibition in brain slices (TrkB in brain slices): did not produce any effect

CN1C(=O)CN=C(c2ccccc2)c2cc(Cl)ccc21 [diazepam, reference compound]
EPM number of entries in open arms (mice [2]): significantly increased
EPM time spent in open arms (mice [2]): significantly increased

COC(=O)[C@@]1(O)C[C@H]2O[C@]1(C)n1c3ccccc3c3c4c(c5c6ccccc6n2c5c31)C(=O)NC4 [K252a, reference compound]
reversal of BDNF signal (human TrkB receptor; KIRA-ELISA, BDNF 4 nM, TetOn-rhTrkB cells and cortical neurons (Fig. S2)): fully reversed

CSCC[C@@H]1NC(=O)[C@@H]2CCCN2C(=O)[C@H](CC(N)=O)NC(=O)[C@@H](N)CSSC[C@@H](C(=O)O)NC(=O)CNC(=O)[C@H](CCC(=O)O)NC(=O)[C@H](CCCCN)NC(=O)[C@H]([C@@H](C)O)NC(=O)[C@H](Cc2ccc(O)cc2)NC(=O)CNC1=O [cyclotraxin-B] (H-CNPMGYTKEGC-OH; disulfide 1-11; N-terminus and C-terminus assumed)
IC50 (human TrkB receptor; with BDNF, read-out: IC50, inhibition of BDNF-induced TrkB activity): 0.3 ± 0.07 nM
IC50 (human TrkB receptor; without BDNF, read-out: IC50, BDNF-independent (basal) TrkB activity): 0.28 ± 0.08 nM
IC50 ([1]; cortical neurons, with BDNF, read-out: IC50, inhibition of BDNF-induced TrkB activity): 0.0671 ± 0.0189 nM
IC50 ([1]; neurons, without BDNF, read-out: IC50, BDNF-independent (basal) TrkB activity): 0.0657 ± 0.0217 nM
cell death (nnr5 PC12 cells): no cell death
IC50 (nnr5 PC12-TrkB cells): 0.0122 ± 0.0085 nM

C[C@@H]1C[C@H]2[C@@H]3CCC4=CC(=O)C=C[C@]4(C)[C@@]3(F)[C@@H](O)C[C@]2(C)[C@@]1(O)C(=O)CO [dexamethasone, reference compound]
TrkB phosphorylation (indirect activation) ([1]; cortical neurons, 1 µM, 2 h): significantly triggered

Fc1ccc([C@@H]2CCNC[C@H]2COc2ccc3c(c2)OCO3)cc1 [paroxetine, reference compound]
FST climbing attempts (mice [3]): increased
FST time of immobility (mice [3]): significant decreased

NT-3: neurotrophin
ratio signal/background (human TrkB receptor): 3.8
EC50 (human TrkB receptor): 0.702 ± 0.134 nM
agonist behaviour at TrkB [1, 4]: partial agonist
ratio signal/background [1, 4]: 1.7
EC50 ([1]; neuronal TrkB receptors): 0.716 ± 0.167 nM

B1: BDNF: neurotrophin, cognate ligand of TrkB; mature recombinant human BDNF (Peprotech) (protein, UniProt P23560 19-247, looked up)
Neurotrophic factor BDNF …: APMKEANIRGQGGLAYPGVRTHGTLESVNGPKAGSRGLTSLADTFEHVIEELLDEDQKVRPNEENNKDADLYTSRVMLSSQVPLEPPLLFLLEEYKNYLDAANMSMRVRRHSDPARRGELSVCDSISEWVTAADKKTAVDMSGGTVTVLEKVPVSKGQLKQYFYETKCNPMGYTKEGCRGIDKRHWNSQCRTTQSYVRALTMDSKKRIGWRFIRIDTSCVCTLTIKRGR
ratio signal/background (human TrkB receptor): 3.94
EC50 (human TrkB receptor; agonist alone): 0.672 nM and 0.614 nM
EC50 ([1]; cortical neurons, agonist alone): 0.186 nM and 0.208 nM
